The source made the active and inactive calls. The rule behind the calls is not given here.
What was measured:
Assay type in all cases: cell-based
Histamine H3 receptor [1] = target: T1, Histamine H3 receptor (Homo sapiens, UniProt Q9Y5N1); experiment: Displacement of [3H]-Histamine from human histamine 3 receptor transfected in HEK293T cells incubated for 16 hrs by liquid scintillation counter analysis
Histamine H4 receptor [2] = target: T2, Histamine H4 receptor (Homo sapiens, UniProt Q9H3N8); experiment: Displacement of [3H]-Histamine from human histamine 4 receptor transfected in HEK293T cells incubated for 16 hrs by liquid scintillation counter analysis
Histamine H3 receptor [3] = target: T1, Histamine H3 receptor; experiment: Antagonist activity at human histamine 3 receptor transfected in human HEK293T cells assessed as reduction in histamine-induced activity at 10 uM incubated for 30 mins followed by histamine stimulation and measured immediately by BRET assay
Histamine H3 receptor [4] = target: T1, Histamine H3 receptor; experiment: Activation of human histamine 3 receptor transfected in human HEK293T cells at 10 uM measured after 5 mins by BRET assay
Histamine H4 receptor [5] = target: T2, Histamine H4 receptor; experiment: Antagonist activity at human histamine 4 receptor transfected in human HEK293T cells assessed as reduction in histamine-induced activity at 10 uM incubated for 30 mins followed by histamine stimulation and measured immediately by BRET assay; settings: filed as antagonist
Histamine H4 receptor [6] = target: T2, Histamine H4 receptor; experiment: Activation of human histamine 4 receptor transfected in human HEK293T cells measured after 5 mins by BRET assay; settings: filed as partial agonist, dose 0.01-10 µM

T1 sequence (Q9Y5N1 whole entry): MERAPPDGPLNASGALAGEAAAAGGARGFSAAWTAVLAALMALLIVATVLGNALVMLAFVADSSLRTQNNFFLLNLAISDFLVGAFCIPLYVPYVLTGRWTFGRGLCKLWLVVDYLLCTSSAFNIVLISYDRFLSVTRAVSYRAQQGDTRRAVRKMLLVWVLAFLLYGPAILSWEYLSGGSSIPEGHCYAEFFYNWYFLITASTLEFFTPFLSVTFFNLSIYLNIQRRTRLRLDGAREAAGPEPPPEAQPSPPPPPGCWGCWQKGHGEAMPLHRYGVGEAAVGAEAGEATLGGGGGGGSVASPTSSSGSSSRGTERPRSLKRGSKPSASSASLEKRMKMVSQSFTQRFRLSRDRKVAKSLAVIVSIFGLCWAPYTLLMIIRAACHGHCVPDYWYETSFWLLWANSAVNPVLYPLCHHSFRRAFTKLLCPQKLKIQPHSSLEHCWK

| Structure (SMILES) | Ki (Histamine H3 receptor [1]) [µM] | Ki (Histamine H4 receptor [2]) [µM] | Activity (Histamine H3 receptor [3]; filed as antagonist) | Activity (Histamine H3 receptor [4]) | Activity (Histamine H4 receptor [5]) | Activity (Histamine H4 receptor [6]) | Activity (Histamine H3 receptor [3]) |
| --- | --- | --- | --- | --- | --- | --- | --- |
| C=CCN1CCN(CC2Cc3cc(-c4ccccc4)ccc3O2)CC1 (stereo unspecified) | 0.00398 | > 10 | Active | inactive | – | – | – |
| C=CCN1CCN(CC2Cc3ccccc3O2)CC1 (stereo unspecified) | – | > 10 | – | – | – | – | – |
| c1ccc(-c2ccc3c(c2)CC(CN2CCNCC2)O3)cc1 (stereo unspecified) | 0.631 | > 10 | – | inactive | – | – | inactive |
| c1ccc(CN2CCN(CC3Cc4ccccc4O3)CC2)cc1 (stereo unspecified) | > 10 | > 10 | – | – | – | – | – |
| CN1CCN(Cc2cc3ccccc3o2)CC1 | > 10 | > 10 | – | – | – | – | – |
| CN1CCN(C(=O)c2nc3ccc(Cl)cc3[nH]2)CC1 | – | – | – | – | Active | – | – |
| CN1CCN(Cc2ccc3c(c2)CCO3)CC1 | > 10 | > 10 | – | – | – | – | – |
| CC(C)(C)c1ccc2c(c1)CC(CN1CCN(c3ccccc3)CC1)O2 (stereo unspecified) | > 10 | > 10 | – | inactive | – | – | inactive |
| O=C(c1cc2ccccc2o1)N1CCN(c2ccccc2)CC1 | > 10 | > 10 | – | – | – | – | – |
| CN1CCN(C(=O)c2cc3ccccc3o2)CC1 | > 10 | 0.0794 | – | – | Active | Dose-dependent effect | – |
| c1ccc(-c2ccc3c(c2)CC(CN2CCN(c4ccccc4)CC2)O3)cc1 (stereo unspecified) | > 10 | > 10 | – | – | – | – | – |

The next lines start with results.

| Ki (Histamine H3 receptor [1]) [µM] | Ki (Histamine H4 receptor [2]) [µM] | Activity (Histamine H3 receptor [3]; filed as antagonist) | Activity (Histamine H3 receptor [4]) | Activity (Histamine H4 receptor [5]) | Activity (Histamine H4 receptor [6]) | Structure (SMILES) | Activity (Histamine H3 receptor [3]) |
| --- | --- | --- | --- | --- | --- | --- | --- |
| 0.794 | > 10 | – | – | – | – | COc1ccc2c(c1)CC(CN1CCN(C)CC1)O2 (stereo unspecified) | – |
| 0.794 | > 10 | – | – | – | – | CN1CCN(CC2Cc3cc(C(C)(C)C)ccc3O2)CC1 (stereo unspecified) | – |
| 0.0398 | > 10 | Active | inactive | – | – | CN1CCN(CC2Cc3cc(-c4ccccc4)ccc3O2)CC1 (stereo unspecified) | – |
| 0.0158 | > 10 | Active | inactive | – | – | C=CCN1CCN(CC2Cc3cc(C(C)(C)C)ccc3O2)CC1 (stereo unspecified) | – |
| 0.794 | 0.794 | – | – | – | – | CN1CCN(CC2Cc3cc(Cl)ccc3O2)CC1 (stereo unspecified) | – |
| 0.00631 | > 10 | Active | inactive | – | – | C=CCN1CCN(CC2Cc3cc(OC)ccc3O2)CC1 (stereo unspecified) | – |

Source: ChEMBL document CHEMBL4680312 (Bioorg Med Chem, 2021)
